The subject of data set [1] is platelets. Description: platelet aggregation. The data set is classed as cell-based, human. As for the experimental part:
FIGS. 7A and 7B depict the effect of N,N,N-trimethylsphingosine (TMS) on platelet aggregation. A 0.45 ml aliquot of human platelet suspension (3-5×10^5 platelets per μl of Tyrode's buffer) was incubated with sphingosine or TMS for 2 minutes. Then platelet aggregation was induced by the addition of either γ-thrombin (FIG. 7A) or adenosine diphosphate (ADP) (FIG. 7B) in 0.05 ml. The degree of aggregation was determined in an aggregometer and the data analyzed with an integrated computer (Kyoto Daiichi Kagaku Co. Ltd.).
FIG. 8 depicts further the dose response of platelet aggregation by sphingoid. Aggregation of the platelets was induced with 10 nM γ-thrombin.
Platelets were isolated from platelet-rich plasma (purchased from the Oregon Red Cross, Portland, Oreg. Contaminating erythrocytes were removed by centrifugation (80×g for 10 minutes). Platelets were obtained by centrifugation (300×g for 10 minutes), washed once in Tyrodes's buffer (pH 6.5) containing 22 mM trisodium citrate and 0.35% (w/v) BSA and resuspended in the same buffer to obtain a concentration of 1-2×10^9 platelets/ml. All procedures were performed at room temperature.
A suspension of platelets (3.5×10^8 /ml) in Tyrode's buffer was preincubated with various inhibitor compounds (H-7 is [1-(5-isoquinolinylsulfonyl)-2-methylpiperazine, a synthetic protein kinase-C inhibitor purchased from Seikagaku America Inc., St. Petersburg, Fla.], calphostin-C [a synthetic protein kinase-C inhibitor obtained from Dr. Saitoh, Kyowa Hakko Co., Ltd., Machida, Tokyo, Japan], sphingosine [purchased from Sigma, St. Louis, Mo.] and dimethylsphingosine and trimethylsphingosine [synthesized according to Igarashi et al., Biochem., 28, 6796, 1989]) followed by addition of thrombin or ADP (both purchased from Sigma). Platelet aggregation was evaluated by transmittance change using an aggregometer (Chrono-log Corp., Havertown, Pa.) equipped with a computer analyzer.

Data set [2] concerns protein kinase-C. The following applies: cited from earlier work.
Data set [3] deals with neutrophils. The data set can be described thus: neutrophil transmigration through HUVEC monolayer. Format: cell-based, human. The protocol:
A characteristic of neutrophils is the ability to adhere to activiated EC's and to migrate through the EC monolayer into the vascular or extravascular matrix. The effect of TMS on neutrophil interactions with EC's and their subsequent trans-endothelial migration thereof can be monitored in vitro using human umbilical endothelial cells (HUVEC's) (Luscinskas et al., J. Imm., 146, 1617, 1991). Neutrophils are added to a HUVEC monolayer and neutrophil-HUVEC interactions are assessed microscopically following fixation, embedding and staining of monolayer sections.
Cross-sections (2 μm) of the collagen bed with HUVEC's and neutrophils
were observed using a Zeiss light microscope with KPL W10 ahd Ph2 Neoflua
16 lenses. The number of cells transmigrated were counted for each view.
HUVEC's and culture media were purchased from Cell Systems (Kirkland, Wash.). The cells were maintained and cultured as described in Luscinskas et al., supra, with some modifications. Briefly, HUVEC's were maintained in 10 ml tissue culture flasks on a collagen type I bed obtained from rat tail (Upstate Biotechnology Inc, Lake Placid, N.Y.) with CS-complete medium, CS-growth factor and CS-AF-1 (Cell Systems). Cells became confluent within 2 to 4 days when incubated in 5% CO2 at 37° C.
For the transmigration assay, thick gels were formed in 24-well tissue culture plates. Preparation of the gel solution was carried out at 4° C. Eight parts of collagen solution (Vitrogen 100, from bovine tendon which contained less than 5 ng/ml endotoxin; Celtrix Labs, Palo Alto, Calif.), one part of 10×RPMI and one part of alkaline solution (2.2 g NaHCO3 in 100 ml of 0.05N NaOH and 200 mM HEPES) were mixed gently and distributed at 0.7 ml/well. The solution was left for 4 hr at 37° C. to eliminate air bubbles, then allowed to gel in a 37° C. oven for 3 hr. The wells were washed with 1.0 ml of CS-complete medium with attachment factors at least 4 times and every 3 to 6 hr during further incubation at 37° C. in 5% CO2.
HUVEC's at a passage level of less than 3 were detached from 10 ml tissue culture flasks with 3 ml of Trypsin-EDTA at 37° C. for 30 to 60 sec. Immediately, 3 ml of M199 with 20% heat-inactivated FCS was added. Cells were collected by centrifugation. The pellet was resuspended in 10 ml of CS-complete medium with attachment factors. Homogeneous cell suspensions were plated at 0.7 ml to each well and the plates were incubated for 3 hr at 37° C. The supernatant, which contains dead cells, was aspirated carefully and fresh complete medium with attachment factors was added.
The HUVEC monolayer in 24-well tissue culture plates were washed with M199 without FCS, then incubated with 1 ml/well of IL-1β (Boehringer Mannheim Biochemical Products, Indianapolis, Ind.) dissolved in M199 with 1% heat-inactivated FCS (HIFCS) at 10 U/ml. The plates were incubated at 37° C., 5% CO2 for 4 hr then washed gently with 1 ml of M199. The purified neutrophil suspension (1.5×10^6 cells/ml) in M199 containing 1% HIFCS was pre-incubated with TMS, or other effectors, for 10 min at 37° C. After aspirating the media in the well, 0.5 ml of the neutrophil suspension were added onto the HUVEC monolayer. The tissue culture plate was incubated for 90 min at 37° C.
The culture was terminated by gently aspirating the cell suspension, adding 1 ml of 10% formaldehyde in PBS and stored at 4° C. overnight for fixation. The edge of the collagen bed was cut with a small spatula along the wall 2 hr before removal from the well. The collagen bed, which has HUVEC's on the surface and transmigrated neutrophils within was embedded in paraffin, sectioned and followed by staining with hematoxylin-eosin for microscopic examination.

Entries after “also recorded” stand apart in the source; their conditions may differ. Where two headings read alike, the source gives them in different places.

For the compound `CCCCCCCCCCCCC/C=C/[C@@H](O)[C@H](CO)N(C)C` [DMS, (4E)-N,N-dimethyl-D-erythro-sphingosine], the “inhibition of thrombin- or ADP-induced platelet aggregation” value in data set [1] (thrombin or ADP, compared with TMS) was “did not inhibit thrombin- or ADP-induced platelet aggregation as well as did TMS”.
On to `CCCCCCCCCCCCC/C=C/[C@@H](O)[C@@H](N)CO` [SPN, sphingosine], for which, in data set [2] (below 100 μM, Igarashi et al.), the PK-C inhibition result is listed as “did not inhibit PK-C”. For the same compound, in data set [3] (Homo sapiens, Neutrophil, 1.5 h, read-out: Number of Cells/View), the activity at 15 µM is 36 ± 12%.
For `CCCCCCCCCCCCC/C=C/[C@@H](O)[C@H](CO)[N+](C)(C)C` [TMS, N,N,N-trimethylsphingosine], the “inhibition of neutrophil migration” value was “inhibited strongly” in data set [3] (8 μM pre-treatment) and “completely inhibited” in data set [3] (25 μM pre-treatment). For the same compound, in data set [3] (15 μM), the “number of cells migrating through the EC monolayer” value is “greatly reduces the number of cells migrating”. For the same compound, the “neutrophil migration (transmigration)” value in data set [3] (Example 10) is reported as “affected neutrophil migration”. The activity at 4 µM in data set [3] (Homo sapiens, Neutrophil, 1.5 h, Table II, 4 μM, control 100, read-out: neutrophil transmigration (number of cells transmigrated)) was 96 ± 18%. For the same compound, in data set [3] (Homo sapiens, Neutrophil, 1.5 h, Table II, 8 μM, control 100, read-out: neutrophil transmigration (number of cells transmigrated)), the activity at 8 µM came out at 66 ± 28%. Also, the activity at 15 µM in data set [3] (Homo sapiens, Neutrophil, 1.5 h, Table II, 15 μM, control 100, read-out: neutrophil transmigration (number of cells transmigrated)) came to 41 ± 8.7%; in data set [3] (Homo sapiens, Neutrophil, 1.5 h, Table III, 15 μM, control 100, read-out: Number of Cells/View), 39 ± 17%. In addition, in data set [3] (Homo sapiens, Neutrophil, 1.5 h, Table II, 25 μM, control 100, read-out: neutrophil transmigration (number of cells transmigrated)), the activity at 25 µM is 6.8 ± 4.1%. In addition, the activity at 45 µM in data set [3] (Homo sapiens, Neutrophil, 1.5 h, Table II, 45 μM, control 100, read-out: neutrophil transmigration (number of cells transmigrated)) was determined as 1.2 ± 1.2%. Also, the “inhibition of ATP secretion associated with platelet aggregation” value in data set [1] is on record as “inhibited strongly”. Moreover, in data set [1], the “inhibition of platelet aggregation” value is given as “inhibited strongly; also recorded: inhibited platelet aggregation in a dose-responsive fashion”. For the same compound, in data set [1] (exclusion of cytotoxicity on platelets), the “ristocetin-induced platelet aggregation following incubation” value is recorded as “normal ristocetin-induced aggregation”.
For Calphostin C, the “concentration reported to inhibit protein kinase-C” value in data set [2] (in vitro, Tamaoki & Nakano) is 0.05 µM. Also, the “Number of Cells/View” value in data set [3] (Table III, 5 μM, control 100, 90 min) was 19 ± 8.9.
